Like-named read-outs stand apart in the source and are kept apart here. Bounds are passed on as bounds.

The target of data set [1] is Human recombinant cyclophilin A (Cyp A) (Homo sapiens (Human), UniProt P62937). In words: Protease-free PPIase assay.
Data set [2] concerns the target calcineurin/cyclophilin A (Homo sapiens (Human), UniProt P62937+P63098+Q08209). In words: Calcineurin Phosphatase (CaN) Assay (+CypA). The format is biochemical.
A short description of data set [3]: Water Solubility Assay (measured in pH 7.8 buffer). The format is physicochemical. Conditions: 25 °C, kinetic from dmso stock.
Where [4] appears, read: in the presence of Cyp A, 1:1 complex with inhibitor, read-out: Calcineurin Phosphatase (CaN) Assay (+CypA) IC50.
The mark [5] stands for this setting: read-out: Protease-free PPIase Assay Ki, human recombinant Cyp A, 10 °C.
The mark [6] stands for this setting: 35 mM HEPES buffer pH 7.8, aqueous buffer, 35 mM HEPES pH 7.8, 1% DMSO, 18 h, read-out: Water Solubility Assay, concentration at which the compound remains in solution.

In the case of `CC[C@H]1NC(=O)[C@@H]([C@H](O)[C@H](C)CCCc2cnn(C)c2)N(C)C(=O)[C@@H](C(C)C)N(C)C(=O)[C@@H](CC(C)C)N(C)C(=O)[C@@H](CC(C)C)N(C)C(=O)[C@H](C)NC(=O)[C@@H](C)NC(=O)[C@@H](CC(C)C)N(C)C(=O)[C@@H](C(C)C)NC(=O)[C@H](CC(C)C)N(C)C(=O)[C@@H](C)N(C)C1=O` [Compound 27, [(2S,3R,4R)-3-Hydroxy-4-methyl-2-(methylamino)-7-(1-methylpyrazol-4-yl)-heptanoic acid]^1 [(R)-methyl-Sar]^3 cyclosporin A], the Ki (in general, a dissociation constant, usually derived from enzyme kinetics or from competition with a known ligand) in data set [1] turned out to be 6.8 nM. Besides, the IC50 – broadly, the point on the concentration scale where inhibition reaches its midpoint – in data set [2] (setting [4]) came out at 1110 nM. For the same compound, the solubility at 18 h in data set [3] (pH 7.8, aqueous buffer) was greater than 100 µM.
As for `CC[C@H]1NC(=O)[C@@H]([C@H](O)[C@H](C)Cc2nccn2CCN2CCOCC2)N(C)C(=O)[C@@H](C(C)C)N(C)C(=O)[C@@H](CC(C)C)N(C)C(=O)[C@@H](CC(C)C)N(C)C(=O)[C@H](C)NC(=O)[C@@H](C)NC(=O)[C@@H](CC(C)C)N(C)C(=O)[C@@H](C(C)C)NC(=O)[C@H](CC(C)C)N(C)C(=O)[C@@H](C)N(C)C1=O` [Compound 2, [(2S,3R,4R)-3-Hydroxy-4-methyl-2-(methylamino)-5-(1-(N-morpholino-ethyl)-1H-imidazol-2-yl)-pentanoic acid]^1 [(R)-methyl-Sar]^3 cyclosporin A], in data set [1] (setting [5]), the inhibition constant (Ki) stood at 4.6 nM. The IC50 in data set [2] is greater than 10000 nM. In data set [3] (setting [6]), the solubility at 18 h was greater than 100 µM.
As for `CC[C@H]1NC(=O)[C@@H]([C@H](O)[C@H](C)CCCc2ccn(C)n2)N(C)C(=O)[C@@H](C(C)C)N(C)C(=O)[C@@H](CC(C)C)N(C)C(=O)[C@@H](CC(C)C)N(C)C(=O)[C@H](C)NC(=O)[C@@H](C)NC(=O)[C@@H](CC(C)C)N(C)C(=O)[C@@H](C(C)C)NC(=O)[C@H](CC(C)C)N(C)C(=O)[C@@H](C)N(C)C1=O` [Compound 25, [(2S,3R,4R)-3-Hydroxy-4-methyl-2-(methylamino)-7-(1-methylpyrazol-3-yl)heptanoic acid]^1 [(R)-methyl-Sar]^3 cyclosporin A], the Ki in data set [1] was 3.8 nM. Moreover, the concentration for half-maximal inhibition (IC50) in data set [2] (setting [4]) was found to be 1460 nM. The solubility at 18 h in data set [3] (pH 7.8, aqueous buffer) was greater than 100 µM.
As for `CC[C@H]1NC(=O)[C@@H]([C@H](O)[C@H](C)Cc2nccn2CCN2CCCC2)N(C)C(=O)[C@@H](C(C)C)N(C)C(=O)[C@@H](CC(C)C)N(C)C(=O)[C@@H](CC(C)C)N(C)C(=O)[C@H](C)NC(=O)[C@@H](C)NC(=O)[C@@H](CC(C)C)N(C)C(=O)[C@@H](C(C)C)NC(=O)[C@H](CC(C)C)N(C)C(=O)[C@@H](C)N(C)C1=O` [Compound 3, [(2S,3R,4R)-3-Hydroxy-4-methyl-2-(methylamino)-5-(1-(N-pyrrolidinyl-ethyl)-1H-imidazol-2-yl)pentanoic acid]^1 [(R)-methyl-Sar]^3 cyclosporin A], the Ki in data set [1] (setting [5]) stood at 8.6 nM. Further, the IC50 in data set [2] (setting [4]) was greater than 10000 nM. Also, the solubility at 18 h in data set [3] (setting [6]) is greater than 100 µM.

For the origin of these results see patent US10077289B2, “Cyclosporins modified on the MeBmt sidechain by heterocyclic rings” (priority 2015, dated 2018).
